This is an account of results in patent US6420374B1, “Use of xanthines as immunosuppressants and to inhibit allograft reactions” (Fred Hutchinson Cancer Research Center, priority 1990, dated 2002).

Entries after “also recorded” stand apart in the source; their conditions may differ. Like-named read-outs stand apart in the source and are kept apart here.

For data set [1] the following is noted: cited from earlier work; for rank among the metabolites of pentoxifylline: in vivo.
Data set [2] concerns bidirectional MLR of blood mononuclear cells. Description: Bidirectional mixed leukocyte reaction (MLR), tritiated thymidine (3Htdr) uptake. It is filed as cell-based, human. As to conditions: for lowest concentration with significant suppression of 3Htdr uptake / most effective concentration (highest concentration tested): PHA / MLR cultures; for inhibition of 3Htdr uptake: blood mononuclear cells with PHA and in bidirectional MLR's, after 6 days in culture, concentration dependent; for T cell activation and proliferation: both by direct stimulation with PHA and in an MLR; for suppressing lymphocyte activation evidenced by MLR: in vitro. From the text:
More particularly, co-cultivation of leukocytes from unrelated individuals leads to blast transformation and proliferation similar to that observed upon addition of mitogens to T-cells. The basis of this reaction appears to be the activation of T-cells from one individual by cell surface markers of another. Co-culturing of blood leukocytes from two individuals is referred to as “mixed leukocyte culture” or “MLC” and the reaction as “mixed leukocyte reaction” or “MLR”. Co-culturing of cells obtained from lymphoid organs is designated “mixed lymphocyte culture” or “mixed lymphocyte reaction”. Since even in the mixed leukocyte reaction, the participating cells are peripheral blood T lymphocytes, there is generally substantially no difference between the two types of culture. Thus, these expressions are used interchangeably herein.
MLR can be carried out using conventional techniques. Cultured cells for the MLR can be derived from peripheral blood, spleen, lymph nodes, or thymus. Cell number can vary by several orders of magnitude. The stimulating cells can be inactivated by irradiation or treatment with an antibiotic to disrupt DNA replication. The culture medium can be supplemented, if necessary, by serum proteins of autologous, syngeneic, allogeneic, or xenogeneic origin. Cultivation can be carried out over a period of several days. The degree of stimulation of responder cells by stimulating cells can be determined from the uptake rate of ^3H-thymidine or radiolabeled amino acids or by counting blasts and dividing cells. If a radiolabel is employed, it can be added to the culture several hours before harvesting.
When blood mononuclear cells from two unrelated individuals are cultured together, mutual stimulation occurs resulting in T cell activation and blastogenesis and ultimately in the generation of cytotoxic T cells and memory cells. This complex series of events, termed the mixed leukocyte reaction (MLR), requires genetic disparaties at the HLA-DR locus. Monocytic cells are needed for antigen processing and presentation. The MLR is thus measures lymphocyte recognition and response to non-self-antigens and serves as an in vitro representation of some of the cellular events associated with graft-versus-host disease (GVHD) and allograft rejection.
(§1) Results are the means SD of triplicate wells.
(§2) All values except those for M1 represent: the means of calculated results from 6 to 8 independent experiments. The M1 results are the average of 2 independent experiments.

Data set [3] concerns T cell activation antigens (HLA-DR, transferrin receptor, IL-2 receptor, CD69; CD2). Description: Expression of T cell activation antigens by direct immunofluorescence after 6 days in a bidirectional MLR. It is filed as cell-based, human. As to conditions: for expression of CD69 / expression of HLA-DR / expression of the IL-2 receptor / expression of the transferrin receptor: to near the levels of mononuclear cells from a single donor. On the procedure: The following fluorescein isothyoc:yanate (FITC) or phycoerythrin (PE) conjugated antibodies were used: IgGl and IgG2a isotype controls, anti-HLe-1 (CD45), anti-LeuM3 (CD14). anti-Leu4(cd3), anti-IL2-receptor (CD25), anti-transferrin receptor (CD71), anti-HLA-DR, and anti-Leu23 (CD69). (All antibodies were from Becton-Dickinson, San Jose, Calif.) Staining was performed using Manufacturer's recommendations ([…] antibody/10^6 cells in 0.1 ml of phosphate buffered saline for 20′ at room temperature). The cells were washed twice, resuspended and analyzed on a Becton-Dickinson FACSan flow cytometer operating under Consort 30 software. The lymphocyte analysis gate was determined on the basis of forward scatter and side scatter and confirmed by examination of two-color immunofluorescence display for CD4S and CD14. Data are presented as the percentage of cells with fluorescence greater than that of the appropriate isotype control.
During T cell activation, there is increased expression of certain cell surface determinants which can serve as markers of activation.

The next data set deals with TNF mRNA. Description: TNF mRNA level in whole cellular RNA extracted from an MLR. The class given is cell-based, human. As to conditions: MLR containing the compound. From the text: There was no decrease in cell viability in the test cultures as assessed by trypan blue dye exclusion (cell viability >95% in all groups). When whole cellular RNA was extracted from an MLR, there was some upregulation of […] compared to cultures of the mononuclear cells cultured individually. However, basal levels of TNF mRNA were readily detectable, possibly due to some activation during the culture period. This was also reflected by significant levels of ^3Htdr uptake.

Another data set has as its system TNF. Description: Release of TNF into the culture medium. It is filed as cell-based, human.
Data set [4] deals with PHA-stimulated mononuclear cells. Kind of data set: PHA-stimulated blood mononuclear cells, tritiated thymidine (3Htdr) uptake. The class given is cell-based, human. As to conditions: rhTNF 200 U/ml added at inception of culture.
Source text: as §1, §2

A further data set has as its system TNF mRNA in U937 cells. The following applies: cited from earlier work.
Where [5] appears, read: human urine, Metabolites II and III together.

Regarding `CC(O)CCCCn1c(=O)c2c(ncn2C)n(C)c1=O` (centres unmarked) [Compound M1, 1-(5-hydroxyhexyl)-3,7-dimethylxanthine], the “amount found in urine” value in data set [1] (human urine) is listed as “Only traces”. For the same molecule, the “rank among the metabolites of pentoxifylline” value in data set [1] is listed as “major metabolites”. For the same molecule, in data set [2], the “lowest concentration with significant suppression of 3Htdr uptake” value was found to be 0.01 mM; the “most effective concentration (highest concentration tested)” value is on record as 1 mM; the “inhibition of 3Htdr uptake” value was “actively inhibited”; the “T cell activation and proliferation” value is recorded as “suppressed”.

Take `Cn1cnc2c1c(=O)n(CCCC(=O)O)c(=O)n2C` [Metabolite V, 1-(3-carboxypropyl)-3,7-dimethylxanthine]: in data set [1] (human urine, main urinary metabolite), the “share of the administered dose in urine” value was 50-60%. In data set [1], the “rank among the metabolites of pentoxifylline” value is given as “major metabolites”.

For the molecule `CCOCn1cnc2c1c(=O)n(CCCCC(C)(C)O)c(=O)n2C` [Compound 1, 7-ethoxymethyl-1-(5-hydroxy-5-methylhexyl)-3-methylxanthine], in data set [3], the “expression of CD2 (non-activation dependent pan-T antigen)” value was “no differences”, the “expression of CD69” value is listed as “decreased”, the “expression of HLA-DR” value is listed as “decreased” and the “expression of the IL-2 receptor” value is given as “decreased”. Further, the “expression of the transferrin receptor” value in data set [3] is “decreased”. The “level of TNF mRNA” value with TNF mRNA is on record as “significantly decreased”. For the same molecule, in data set [2], the “inhibition of 3Htdr uptake” value is “actively inhibited”; the “T cell activation and proliferation” value is on record as “suppressed”.

On to `CC(O)C(O)CCCn1c(=O)c2c(ncn2C)n(C)c1=O` (centres unmarked) [Metabolite III, 1-(4,5-dihydroxyhexyl)-3,7-dimethylxanthine], for which the “share of the excretion products” value in data set [1] (setting [5]) is on record as “approximately 12%”.

Regarding `Cn1cnc2c1c(=O)n(CCCCC(O)CO)c(=O)n2C` (centres unmarked) [Metabolite II, 1-(5,6-dihydroxyhexyl)-3,7-dimethylxanthine], the “share of the excretion products” value in data set [1] (setting [5]) is reported as “approximately 12%”.

With `CC(=O)CCCCn1c(=O)c2c(ncn2C)n(C)c1=O` [PTX, 1-(5-oxohexyl)-3,7-dimethylxanthine], the “release of the cytokine (TNF) into the culture medium” value in the data set on TNF was “decreased”. In data set [3], the “expression of CD2 (non-activation dependent pan-T antigen)” value is on record as “no differences”, the “expression of CD69” value is “decreased”, the “expression of HLA-DR” value is listed as “decreased” and the “expression of the IL-2 receptor” value is listed as “decreased”. The “expression of the transferrin receptor” value in data set [3] is “decreased”. Besides, in data set [4], the “diminution in response to PHA after addition of recombinant human TNF” value is “not abrogated”. The “endotoxin induced upregulation of TNF mRNA” value in the data set on TNF mRNA in U937 cells was “can prevent”. For the same molecule, the “level of TNF mRNA” value in the data set on TNF mRNA is “significantly decreased”. Also, in data set [2], the “lowest concentration with significant suppression of 3Htdr uptake” value is on record as 0.01 mM; the “most effective concentration (highest concentration tested)” value turned out to be 1 mM; the “inhibition of 3Htdr uptake” value was “actively inhibited”; the “T cell activation and proliferation” value was “suppressed”. Moreover, in data set [2] (rhTNF 200 U/ml added at inception of culture), the “diminution (suppression) of the MLR after addition of recombinant human TNF” value is on record as “not abrogated; also recorded: not reversed”.

Turning to `CCCCn1c(=O)c2c(ncn2CC(C)=O)n(CCCC)c1=O` [Denbufylline, 7-acetonyl-1,3-dibutyl-xanthine], the entries for the “suppressing lymphocyte activation evidenced by MLR” value in data set [2] and in data set [2] (listed as compound (III)) were “not effective” and “has not been demonstrated”, respectively.

Consider `Cn1cnc2c1c(=O)n(CCCCC(=O)O)c(=O)n2C` [Metabolite IV, 1-(4-carboxybutyl)-3,7-dimethylxanthine], for which the “share of the excretion products” value in data set [1] (human urine) was “about 8%”.
